The values that follow come from ChEMBL document CHEMBL1123770, “Systematic synthesis and biological evaluation of alpha- and beta-D-lyxofuranosyl nucleosides of the five naturally occurring nucleic acid bases” (1987).

Test [1] has as its system Vero. The test can be described thus: Minimum inhibitory concentration (MIC) required to reduce virus-induced cytopathogenicity by 50% against Coxsackie virus B4 in African green monkey kidney (Vero B)cells. Format: functional, Chlorocebus sabaeus. Conditions: Chlorocebus sabaeus; read-out: MIC.
The species named for test [2] is Oryctolagus cuniculus. The test can be described thus: Minimum inhibitory concentration (MIC) required to reduce virus-induced cytopathogenicity by 50% against Vaccinia virus in primary rabbit kidney cells. Format: functional. To be noted: Oryctolagus cuniculus; read-out: MIC. On the technique in general: Cytopathic effects are the visible damage that an infection or toxin causes in cultured cells.

The subject of test [3] is HeLa. Briefly: Minimum inhibitory concentration (MIC) required to reduce virus-induced cytopathogenicity by 50% against Coxsackie virus B4 in HeLa cells. Conditions: Homo sapiens. The class given is functional.
Test [4] concerns HeLa. The test can be described thus: Minimum cytotoxic concentration (MCC) required to cause a microscopically detectable alteration of host cell morphology, when incubated with HeLa cells. Format: functional. Conditions: Homo sapiens.
Test [5] has as its system Vero. The test can be described thus: Minimum inhibitory concentration (MIC) required to reduce virus-induced cytopathogenicity by 50% against Reo virus-1 in African green monkey kidney (Vero B)cells. The class given is functional, Chlorocebus sabaeus. To be noted: Chlorocebus sabaeus; read-out: MIC.
The subject of test [6] is Vero. The test can be described thus: Minimum cytotoxic concentration (MCC) required to cause a microscopically detectable alteration of host cell morphology, when incubated with Vero B cells. Format: functional. Conditions: Chlorocebus sabaeus.
The subject of test [7] is WI-38. The test can be described thus: Minimum inhibitory concentration (MIC) required to reduce virus-induced cytopathogenicity by 50% against Rhinovirus 9 in human diploid (WI-38)cells. To be noted: Homo sapiens; read-out: MIC. Format: functional.
The test system of test [8] is Vero. Briefly: Minimum inhibitory concentration (MIC) required to reduce virus-induced cytopathogenicity by 50% against Sindbis virus in African green monkey kidney (Vero B)cells. Format: functional. Conditions: Chlorocebus sabaeus.
Test [9] can be described thus: Minimum cytotoxic concentration (MCC) required to cause a microscopically detectable alteration of host cell morphology, when incubated with PRK cells. The class given is functional. To be noted: Oryctolagus cuniculus.
Test [10] has as its system WI-38. The test can be described thus: Minimum inhibitory concentration (MIC) required to reduce virus-induced cytopathogenicity by 50% against Rhinovirus-1A in human diploid (WI-38)cells. Format: functional.
For test [11], the system named is HeLa. The test can be described thus: Minimum inhibitory concentration (MIC) required to reduce virus-induced cytopathogenicity by 50% against Vesicular stomatitis virus in HeLa cells. Format: functional. To be noted: Homo sapiens.
For test [12], the species on record is Oryctolagus cuniculus. The test can be described thus: Minimum inhibitory concentration (MIC) required to reduce virus-induced cytopathogenicity by 50% against Vesicular stomatitis virus in primary rabbit kidney cells. Format: functional.
The subject of test [13] is Vero. The test can be described thus: Minimum inhibitory concentration (MIC) required to reduce virus-induced cytopathogenicity by 50% against forest virus in African green monkey kidney (Vero B)cells. The class given is functional. To be noted: Chlorocebus sabaeus.
For test [14], the species on record is Oryctolagus cuniculus. Briefly: Minimum inhibitory concentration (MIC) required to reduce virus-induced cytopathogenicity by 50% against G strain of Herpes simplex virus-2 in primary rabbit kidney cells. Conditions: Oryctolagus cuniculus; read-out: MIC. Format: functional.
The subject of test [15] is WI-38. The test can be described thus: Minimum cytotoxic concentration (MCC) required to cause a microscopically detectable alteration of host cell morphology, when incubated with WI-38 cells. Conditions: Homo sapiens. The class given is functional.
Another test has as its system Human respirovirus 3. The test can be described thus: Minimum inhibitory concentration (MIC) required to reduce virus-induced cytopathogenicity by 50% against Parainfluenza virus-3 in African green monkey kidney (Vero B)cells. Format: functional.
The species named for test [16] is Oryctolagus cuniculus. The test can be described thus: Minimum inhibitory concentration (MIC) required to reduce virus-induced cytopathogenicity by 50% against KOS strain of Herpes simplex virus-1 in primary rabbit kidney cells. The class given is functional.

Each structure is given as a SMILES string. In brackets after ≈: the same amount, converted by molar mass.

Take `Nc1nccc2c1ncn2[C@@H]1C[C@H](CO)[C@@H](O)[C@H]1O` [3-DEAZAARISTEROMYCIN A]: the MIC is 0.04 µg/mL (≈ 0.151 µM) in the test with Vero [1]; 0.7 µg/mL (≈ 2.65 µM) in the test listed under Oryctolagus cuniculus [2]; greater than 400 µg/mL in the test on HeLa [3]; 1 µg/mL (≈ 3.78 µM) in the test on Vero [5]; greater than 400 µg/mL with WI-38 [7]; 70 µg/mL (≈ 265 µM) with Vero [8]. Further, the MIC was greater than 400 µg/mL against WI-38 [10]; 0.7 µg/mL (≈ 2.65 µM) in the test on HeLa [11]; 0.2 µg/mL (≈ 0.757 µM) in the test filed under Oryctolagus cuniculus [12]; greater than 200 µg/mL in the test on Vero [13]; 150 µg/mL (≈ 568 µM) in the test listed under Oryctolagus cuniculus [14]; 0.7 µg/mL (≈ 2.65 µM) in the test with Human respirovirus 3. Also, the MIC in the test listed under Oryctolagus cuniculus [16] is greater than 400 µg/mL. The MCC (in the test on HeLa [4]; in the test on Vero [6]; in [9]; in the test on WI-38 [15]) was greater than 400 µg/mL throughout.
